Test results reported in patent US20180264134A1, “A COMPOSITION OF GOLD NANOPARTICLES HAVING ANTIMICROBIAL PEPTIDES BOUND ON THEIR SURFACE FOR USE THE TREATMENT OF WOUND HEALING OR IN THE TREATMENT OF ISCHEMIC OR VASCULAR DISEASES OR IN THE TREATMENT OF SKIN DISORDERS” (priority 2015, published 2018).

What was measured:
platelets = assay: Platelet activation (CD62P expression) in whole peripheral blood; format: cell-based, human; details: positive control
Experimental: In an embodiment, to evaluate the hemocompatibility of Au NPs and LL37-Au NPs, the induction of platelet activation was tested. Platelet activation was measured by the flow cytometric quantification of CD62P (P-selectin) expression. CD62P is a component of the α-granule membrane of resting platelets that is expressed on the platelet surface membrane only after α-granule secretion, which occurs during platelet activation. Platelets are very sensitive to in vitro activation and aggregation, therefore, the less they are manipulated the better, for this reason the whole peripherical blood (diluted in tyrode buffer) were incubated with the NPs instead of isolating platelet rich plasma. […] As positive control it was used ADP, a platelet activator, which induced the activation of 40% of the platelets (FIG. 13). […] In contrast, HUVECs were more sensitive to soluble LL37 than HaCaT showing cytotoxic effect at a concentration of 10 μg/mL and 30 μg/mL, respectively. Furthermore, LL37-Au NPs have lower cytotoxic and impact on membrane potential than soluble peptide that for the same concentration of LL37 (up to 100 μg/mL). Differences in the cell membrane composition between HUVECs and HaCaT might account for the differences between endothelial and epithelial cells response on LL37 cytotoxicity as supported by the result of membrane potential analysis (FIG. 13d).

[1] = test system: clathrin-mediated endocytosis; assay: FITC-labelled transferrin uptake (validation of dynasore); format: cell-based, human; details: 80 μM, 30 min pre-incubation, keratinocytes
Experimental: In an embodiment the HaCaT keratinocyte cells were cultured on 24 well plates (1×10^6 cells/well) and inhibited by one of the following chemicals during 30 min before adding a suspension of Rhodamine-labelled NPs (15 μg/mL): dynasor (100 μM), cytochalasin D (100 μM), nocodazole (25 uM), filipin III (1 μM) and polyinosinic acid (100 μg/mL), 5-(N-ethyl-N-isopropyl)amiloride (EIPA), dextran sulfate. The inhibitor concentrations were based in values reported in literature and further validated by us to have no cytotoxic effect over the period of the assay (6 h), as confirmed by viability assay. The incubation of the cells with NPs for different times was performed in the presence of the inhibitor. As controls, HaCaT keratinocyte cells without NPs and cells incubated with NPs without inhibitor were used. At the end of each time point, cells were centrifuged at 1300 rpm, 20° C. for 5 min, washed 3 times with cold PBS and then resuspended in PBS containing 2.5% FBS (500 μL) for FACS analysis. A total of 10,000 events were obtained per measurement. To validate the inhibitory activity of dynasor it were performed uptake studies of FITC-labeled transferrin, known to selectively enter cells via clathrin-mediated endocytosis. […] Cells were then evaluated as before.

Row | Structure (SMILES) | activated platelets (platelets) | internalisation of FITC-labelled transferrin [1]
1 | Nc1ncnc2c1ncn2[C@@H]1O[C@H](COP(=O)(O)OP(=O)(O)O)[C@@H](O)[C@H]1O [ADP] | 40% | 
2 | O=C(N/N=C/c1ccc(O)c(O)c1)c1cc2ccccc2cc1O [Dynasore, dynasore] |  | inhibits the internalisation of transferrin
